Data: patent US20260317296A1, “HETEROCYCLIC COMPOUNDS FOR IMAGING AGGREGATED TAU IN TAUOPATHIES” (University of Pittsburgh - Of the Commonwealth System of …, priority 2023, published 2026)
Read-outs that look alike come from different tables or passages of the source. One block for each compound: values may come before it.

How the values were obtained:
[1] = target: T1, aggregated 4R-tau in AD tissue (Homo sapiens, UniProt P10636); assay: In vitro competition (Ki) assay, AD brain tissue homogenate; type: binding
T1 construct: autopsy-confirmed postmortem AD, PSP, and CBD human brain tissues; tissue UCSF Neurodegenerative Disease Brain Bank; host or cells: post-mortem human AD brain homogenate
T1 sequence (P10636 1-441 isoform P10636-8): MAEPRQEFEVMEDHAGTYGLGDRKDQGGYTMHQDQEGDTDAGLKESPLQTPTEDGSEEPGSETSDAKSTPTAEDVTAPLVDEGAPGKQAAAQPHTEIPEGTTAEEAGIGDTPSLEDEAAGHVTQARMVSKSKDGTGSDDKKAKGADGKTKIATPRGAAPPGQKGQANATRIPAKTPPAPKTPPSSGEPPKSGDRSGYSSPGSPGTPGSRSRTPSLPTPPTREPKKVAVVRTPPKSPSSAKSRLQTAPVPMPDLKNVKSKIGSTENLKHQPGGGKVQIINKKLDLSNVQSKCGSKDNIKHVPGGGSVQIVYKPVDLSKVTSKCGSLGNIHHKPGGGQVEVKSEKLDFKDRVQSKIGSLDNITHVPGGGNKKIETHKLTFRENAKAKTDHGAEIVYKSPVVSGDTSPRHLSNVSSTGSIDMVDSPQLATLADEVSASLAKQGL
T1 sequence (P10636 1-410 isoform P10636-5): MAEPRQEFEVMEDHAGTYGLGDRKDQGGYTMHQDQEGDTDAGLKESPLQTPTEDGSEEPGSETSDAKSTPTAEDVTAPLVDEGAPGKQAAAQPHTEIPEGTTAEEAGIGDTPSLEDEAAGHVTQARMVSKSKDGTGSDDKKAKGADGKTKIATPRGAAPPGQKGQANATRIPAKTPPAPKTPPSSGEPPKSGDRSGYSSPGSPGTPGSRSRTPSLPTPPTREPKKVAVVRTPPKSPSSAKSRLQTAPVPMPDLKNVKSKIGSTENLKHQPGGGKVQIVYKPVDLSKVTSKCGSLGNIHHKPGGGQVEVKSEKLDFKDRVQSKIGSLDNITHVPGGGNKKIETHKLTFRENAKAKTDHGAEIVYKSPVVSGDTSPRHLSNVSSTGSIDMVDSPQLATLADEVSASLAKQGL

[2] = target: T2, aggregated 4R-tau in PSP tissue (Homo sapiens, UniProt P10636); assay: In vitro competition (Ki) assay, PSP brain tissue homogenate; type: binding
T2 construct: autopsy-confirmed postmortem AD, PSP, and CBD human brain tissues; tissue UCSF Neurodegenerative Disease Brain Bank; host or cells: post-mortem human PSP brain homogenate
T2 sequence (P10636 1-441 isoform P10636-8): as the sequence (P10636 1-441 isoform P10636-8) above

[3] = target: T3, alpha-synuclein (Homo sapiens, UniProt P37840); assay: Homologous binding assay, Parkinson's Disease (PD) brain tissue
T3 construct: Parkinson's Disease (PD) post-mortem brain tissue; from tissue; host or cells: post-mortem Parkinson's Disease brain

[4] = target: T4, PiB binding site on amyloid-beta (Homo sapiens, UniProt P05067); assay: Competition against [^3H]PiB in post-mortem human AD brain tissue
T4 construct: from tissue; host or cells: post-mortem human AD brain
T4 sequence (P05067 672-713 limits assumed): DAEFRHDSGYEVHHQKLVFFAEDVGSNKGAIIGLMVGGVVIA

[5] = target: T5, aggregated 4R-tau in AD brain (Homo sapiens, UniProt P10636); assay: Binding affinity (Kd) assay, AD brain homogenate; settings: for Kd: AD brain, Table 1
T5 construct: aggregated 4R-tau in human brain tissue samples from AD, PSP, and CBD patients; from tissue; host or cells: homogenized cortex of human AD brain
T5 sequence (P10636 1-441 isoform P10636-8): as the sequence (P10636 1-441 isoform P10636-8) above
T5 sequence (P10636 1-410 isoform P10636-5): as the sequence (P10636 1-410 isoform P10636-5) above

[6] = target: T6, aggregated 4R-tau in PSP brain (Homo sapiens, UniProt P10636); assay: Binding affinity (Kd) assay, PSP brain homogenate; settings: for Kd: PSP brain, Table 1
T6 construct: aggregated 4R-tau in human brain tissue samples from AD, PSP, and CBD patients; from tissue; host or cells: homogenized cortex of human PSP brain
T6 sequence (P10636 1-441 isoform P10636-8): as the sequence (P10636 1-441 isoform P10636-8) above

[7] = target: T7, aggregated 4R-tau in CBD brain (Homo sapiens, UniProt P10636); assay: Binding affinity (Kd) assay, CBD brain homogenate; settings: for Kd: CBD brain, Table 1
T7 construct: aggregated 4R-tau in human brain tissue samples from AD, PSP, and CBD patients; from tissue; host or cells: homogenized cortex of human CBD brain
T7 sequence (P10636 1-441 isoform P10636-8): as above

[8] = target: T8, Pick's Disease brain tissue (Homo sapiens, UniProt P10636); assay: Homologous binding assay, Pick's Disease brain tissue; settings: post-mortem human Pick's Disease brain tissue
T8 construct: post-mortem human AD, PSP, CBD, and Pick's Disease brain tissue; from tissue; host or cells: post-mortem human Pick's Disease brain
T8 sequence (P10636 1-410 isoform P10636-5): as the sequence (P10636 1-410 isoform P10636-5) above

[9] = target: T9, P301L mouse brain tissue (Homo sapiens, UniProt P10636, P618L); assay: Homologous binding assay, P301L mouse brain tissue
T9 construct: from tissue; host or cells: brain tissue of P301L mouse
T9 sequence (P10636 1-441 isoform P10636-8 P301L): as the sequence (P10636 1-441 isoform P10636-8) above, with P301L counted along it

[10] = test system: PSP brain tissue; assay: Autoradiography, post-mortem PSP brain tissue; type: binding, human; settings: medial frontal cortex, 5 nM, self-blocking with 1 mM unlabeled 69
[11] = test system: CBD brain tissue; assay: Autoradiography, post-mortem CBD brain tissue; type: binding, human; settings: medial frontal cortex, 5 nM, self-blocking with 1 mM unlabeled 69
[12] = test system: AD brain tissue; assay: Autoradiography, post-mortem AD brain tissue; type: binding, human; settings: medial frontal cortex, 5 nM, self-blocking with 1 mM unlabeled 69
[13] = test system: post-mortem human brain control tissue; assay: Autoradiography, post-mortem control brain tissue; type: binding; settings: cingulate gyrus, 5 nM, self-blocking with 1 mM unlabeled 69
[14] = log D of radiotracer; type: physicochemical; settings: n=4
[15] = vs [^3H]1, n = 1, Ki=IC50/2, read-out: Inhibition Constant (Ki) versus [^3H]1
[16] = post-mortem human AD brain tissue
[17] = vs [^3H]2, n = 1, Ki=IC50/2, read-out: Inhibition Constant (Ki) versus [^3H]2

Ki [1, 15]: 37 nM
Ki [2, 15]: 23 nM
SMILES: Fc1ccc2cc(-c3cnc(N4CCC(F)(F)CC4)nc3)[nH]c2c1 [Compound 17, 2-(2-(4,4-Difluoropiperidin-1-yl)pyrimidin-5-yl)-6-fluoro-1H-indole]

Ki [1, 15]: 45 nM
Ki [2, 15]: 91 nM
SMILES: OC1CCN(c2ncc(-c3cc4cc(F)ccc4o3)cn2)CC1 [Compound 43, 1-(5-(5-Fluorobenzofuran-2-yl)pyrimidin-2-yl)piperidin-4-ol]

Ki [1, 15]: 11 nM
Ki [2, 15]: 24 nM
SMILES: OC1CCN(c2ncc(-c3cc4ccccc4[nH]3)cn2)CC1 [Compound 46, 1-(5-(1H-Indol-2-yl)pyrimidin-2-yl)piperidin-4-ol]

Ki [1, 15]: 21 nM
Ki [2, 15]: 20 nM
SMILES: OC1CCN(c2ncc(-c3cc4cc(F)ccc4[nH]3)cn2)CC1 [Compound 47, 1-(5-(5-Fluoro-1H-indol-2-yl)pyrimidin-2-yl)piperidin-4-ol]

competition against [^3H]PiB (in words) [4, 16]: does not compete well
SMILES: Fc1nc(N2CCOCC2)ccc1-c1cc2ccccc2[nH]1 [Compound 69, 4-(6-Fluoro-5-(1H-indol-2-yl)pyridin-2-yl)morpholine]
binding to alpha-synuclein (in words) ([3]; concluded from PD brain tissue): does not bind strongly to alpha-synuclein
binding to the PiB binding site on amyloid-beta (in words) ([4]; concluded from competition against [^3H]PiB): does bind to the PiB binding site on amyloid-beta

Ki [1, 17]: 11 nM
Ki [2, 17]: 12 nM
SMILES: Fc1ccc2cc(-c3cnc(N4CCOCC4)cc3F)[nH]c2c1 [Compound 82, 4-(4-Fluoro-5-(6-fluoro-1H-indol-2-yl)pyridin-2-yl)morpholine]

Ki [1, 17]: 17 nM
Ki [2, 17]: 20 nM
SMILES: Fc1ccc2cc(-c3ncc(N4CCOCC4)cc3F)[nH]c2c1 [Compound 98, 4-(5-Fluoro-6-(6-fluoro-1H-indol-2-yl)pyridin-3-yl)morpholine]

Ki [1, 15]: 22 nM
Ki [2, 15]: 32 nM
SMILES: Cn1c(-c2cnc(N3CCOCC3)nc2)cc2ccc(F)cc21 [Compound 103, 4-(5-(6-Fluoro-1-methyl-1H-indol-2-yl)pyrimidin-2-yl)morpholine]

Kd [5]: 4 ± 3.1 nM
Kd [6]: 5.1 ± 1.2 nM
Kd [7]: 4.1 nM
SMILES: OC1CCN(c2ncc(-c3cc4ccc(F)cc4[nH]3)cn2)CC1 [[^3H]1]

Kd [5]: 1.2 ± 0.5 nM
Kd [6]: 1.6 ± 0.2 nM
Kd [7]: 1.7 ± 0.3 nM
SMILES: Fc1ccc2cc(-c3cnc(N4CCOCC4)nc3)[nH]c2c1 [[^3H]2]

binding affinity (in words) [5, 16]: high affinity
binding affinity (in words) ([6]; post-mortem human PSP brain tissue): high affinity
binding affinity (in words) ([7]; post-mortem human CBD brain tissue): high affinity
binding affinity (in words) [8]: high affinity
binding affinity (in words) [9]: high affinity
Kd ([3]; PD tissue, Table 7 (n = 4)): 110 ± 54 nM
binding affinity (in words) ([3]; Parkinson's Disease (PD) post-mortem brain tissue): low affinity
specific binding by autoradiography [10]: Specific binding
specific binding by autoradiography [11]: Specific binding
specific binding by autoradiography [12]: Specific binding
specific binding by autoradiography [13]: Little to no specific binding
SMILES: Fc1nc(N2CCOCC2)ccc1-c1cc2ccccc2[nH]1 [[^3H]69]

logD [14]: 1.96 ± 10
SMILES: [18F]c1nc(N2CCOCC2)ccc1-c1cc2ccccc2[nH]1 [[^18F]69, 4-(6-[^18F]Fluoro-5-(1H-indol-2-yl)pyridin-2-yl)morpholine]
